# Source: PubChem BioAssay AID1963836 (Molecular Pharmacology Branch, DTP, NCI, 2024)
# Several values for one entry are separate records, joined by “and”; a condition that tells them apart may be missing. Equal entries are not always repeated.
# Tested on: 857933-349-R-J2-PDC complex spheroid viability
# Assay: Anticancer human tumor 857933-349-R-J2-PDC patient-derived colon adenocarcinoma cell line growth inhibition [POLQ]
# Settings: for viability, T/C: stronger effect = lower value
# Description: Multicellular complex tumor spheroid response to Polymerase (POL) inhibitors (novobiocin, ART-558, RP6685) in combination with a variety of drugs and investigational agents in selected tumor cell lines
# The POL inhibitors (novobiocin, ART-558, and RP6685) were evaluated both individually and in combination with standard of care and investigational anticancer small molecules within a complex spheroid model of solid tumors. . Complex spheroids include a stromal component modeled by human endothelial cells (HUVEC) and fibroblasts modeled by human mesenchymal stem cells (MSCs). The concentration ranges selected for each drug and investigational agent were based upon clinically achievable concentrations if the clinical Cmax of the agent was known.
# Compounds. The drugs and investigational agents: novobiocin (NSC847541), ART-558 (NSC835418), RP-6685 (NSC848927), peposertib (NSC802822), ceralasertib (NSC780249), elimusertib (NSC800525), camonsertib (NSC841442), AZD-1390 (NSC803789), olaparib (NSC753686), talazoparib (NSC767125), rucaparib (NSC756644), sotorasib (NSC818433), MRTX-1133 (NSC836407), SN-38 (NSC673596), topotecan (NSC609699), epotoside (NSC141540), doxorubicin (NSC123127), gemcitabine (NSC613327), 5-fluorouracil (NSC19893), paclitaxel (NSC125973), vemurafenib (NSC761431), MSA-2 (NSC828583), SN-011 (NSC837082), adavosertib (NSC754352), prexasertib (NSC758257), carboplatin (NSC241240) and oxaliplatin (NSC266046), were obtained from the National Cancer Institute (NCI) Developmental Therapeutics Program Chemical Repository (21). The FDA-approved anticancer drug set is available from the Developmental Therapeutics Program at https://dtp.cancer.gov/organization/dscb/obtaining/. […] The stock solutions were prepared in dimethyl sulfoxide (DMSO, Sigma-Aldrich, St. Louis, MO, cat. D2650), except for the platinum compounds which were prepared in saline (Quality Biological, Gaithersburg, MD, cat. 114-055-101), at 800-fold the tested concentration and stored at -70 degrees C prior to their use. All drugs and investigational agents were tested over a range starting from a high concentration at or near the clinical Cmax and decreasing in half-log increments. If the clinical Cmax for an agent had not been determined, the highest concentration tested was 10 microM, except for SN-38, which was tested at a high concentration of 1 microM.
# Cell Culture. All cells were maintained in an incubator at 37 degrees C and 5% CO2 with 95% humidity. The PDC lines were cultured according to standard operating procedures established by the NCI PDMR (https://pdmr.cancer.gov). Table 3 of the manuscript, lists the cell lines along with the number of the three cell types plated to form the mct-spheroids and media for tumor cell growth. After thawing, all PDC lines, except 997537-175-T-J1-PDC and 415267-285-R-J2-PDC, were cultured in Matrigel-coated flasks prepared with a working solution of 1X Ham's F-12 nutrient mix, without supplementation (Thermo Fisher Scientific, cat. 11765054), 100 U/mL penicillin-streptomycin (Thermo Fisher Scientific, cat. 15140122), and 2.5% Matrigel (Corning Inc., Corning, NY, cat. 354248) for the first three passages. The two PDC lines 997537-175-T-J1-PDC and 415267-285-R-J2-PDC were cultured on uncoated flasks. The 857933-349-R-J2-PDC line was cultured in 6C/Colon 1B media containing advanced DMEM/F-12 (Thermo Fisher Scientific, cat. 12634028), 10 mM HEPES (Thermo Fisher Scientific, cat. 15630080), 1X GlutaMAX supplement (Thermo Fisher Scientific, cat. 35050061), 0.1 mg/mL primocin (InvivoGen, San Diego, CA, cat. ant-pm-2), 10% defined fetal bovine serum, heat inactivated (HyClone Laboratories Inc., Logan, UT, cat. SH30070.03HI), 50% L-WRN conditioned media (ATCC, cat. CRL-3276), 1.25 mM N-Acetyl-L-cysteine (Sigma-Aldrich, cat. A9165), 10 mM nicotinamide (Sigma-Aldrich, cat. N0636), 1X B-27 supplement (Thermo Fisher Scientific, cat. 17504044), 1X N-2 supplement (Thermo Fisher Scientific, cat. […]
# [1] = curve of first compound, second compound 0.0316 µM
# [2] = curve of first compound, second compound 0.1 µM
# [3] = curve of first compound, second compound 0.316 µM
# [4] = curve of first compound, second compound 1 µM
# [5] = curve of first compound, second compound 3.16 µM
# [6] = curve of first compound, second compound 10 µM
# [7] = second compound 0.0316 µM, first compound 0.0316 µM
# [8] = second compound 0.0316 µM, first compound 0.1 µM
# [9] = second compound 0.0316 µM, first compound 0.316 µM
# [10] = second compound 0.0316 µM, first compound 1 µM
# [11] = second compound 0.0316 µM, first compound 3.16 µM
# [12] = second compound 0.0316 µM, first compound 10 µM
# [13] = second compound 0.1 µM, first compound 0.0316 µM
# [14] = second compound 0.1 µM, first compound 0.1 µM
# [15] = second compound 0.1 µM, first compound 0.316 µM
# [16] = second compound 0.1 µM, first compound 1 µM
# [17] = second compound 0.1 µM, first compound 3.16 µM
# [18] = second compound 0.1 µM, first compound 10 µM
# [19] = second compound 0.316 µM, first compound 0.0316 µM
# [20] = second compound 0.316 µM, first compound 0.1 µM
# [21] = second compound 0.316 µM, first compound 0.316 µM
# [22] = second compound 0.316 µM, first compound 1 µM
# [23] = second compound 0.316 µM, first compound 3.16 µM
# [24] = second compound 0.316 µM, first compound 10 µM
# [25] = second compound 1 µM, first compound 0.0316 µM
# [26] = second compound 1 µM, first compound 0.1 µM
# [27] = second compound 1 µM, first compound 0.316 µM
# [28] = second compound 1 µM, first compound 1 µM
# [29] = second compound 1 µM, first compound 3.16 µM
# [30] = second compound 1 µM, first compound 10 µM
# [31] = second compound 3.16 µM, first compound 0.0316 µM
# [32] = second compound 3.16 µM, first compound 0.1 µM
# [33] = second compound 3.16 µM, first compound 0.316 µM
# [34] = second compound 3.16 µM, first compound 1 µM
# [35] = second compound 3.16 µM, first compound 3.16 µM
# [36] = second compound 3.16 µM, first compound 10 µM
# [37] = second compound 10 µM, first compound 0.0316 µM
# [38] = second compound 10 µM, first compound 0.1 µM
# [39] = second compound 10 µM, first compound 0.316 µM
# [40] = second compound 10 µM, first compound 1 µM
# [41] = second compound 10 µM, first compound 3.16 µM
# [42] = second compound 10 µM, first compound 10 µM
# 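Also: spheroids exposed to compounds for seven days before readout.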
structure (smiles),measurement,setting,value
COc1cccc2c1C(=O)c1c(O)c3c(c(O)c1C2=O)CC(O)(C(=O)CO)CC3OC1CC(N)C(O)C(C)O1 (centres undefined) + Cc1cccc(N(C)C(=O)C2C(O)CCN2c2nc(C)cc(C(F)(F)F)c2C#N)c1,IC50,[1],218 nM
same,IC50,[2],315 nM
same,IC50,[3],304 nM
same,IC50,[4],196 nM
same,IC50,[5],199 nM
same,IC50,[6],176 nM
same,"viability, T/C",[7],86.9%
same,"viability, T/C",[8],62.2%
same,"viability, T/C",[9],47.1%
same,"viability, T/C",[10],17%
same,"viability, T/C",[11],0.52%
same,"viability, T/C",[12],0.28%
same,"viability, T/C",[13],76.9%
same,"viability, T/C",[14],79.5%
same,"viability, T/C",[15],48.4%
same,"viability, T/C",[16],12.9%
same,"viability, T/C",[17],0.41%
same,"viability, T/C",[18],0.35%
same,"viability, T/C",[19],70.4%
same,"viability, T/C",[20],79.1%
same,"viability, T/C",[21],46.7%
same,"viability, T/C",[22],14%
same,"viability, T/C",[23],0.45%
same,"viability, T/C",[24],0.46%
same,"viability, T/C",[25],74.1%
same,"viability, T/C",[26],60.1%
same,"viability, T/C",[27],42.3%
same,"viability, T/C",[28],6.42%
same,"viability, T/C",[29],0.28%
same,"viability, T/C",[30],0.34%
same,"viability, T/C",[31],86.2%
same,"viability, T/C",[32],66.4%
same,"viability, T/C",[33],40.2%
same,"viability, T/C",[34],7.89%
same,"viability, T/C",[35],0.38%
same,"viability, T/C",[36],0.47%
same,"viability, T/C",[37],65.9%
same,"viability, T/C",[38],64.1%
same,"viability, T/C",[39],35.7%
same,"viability, T/C",[40],4.82%
same,"viability, T/C",[41],0.36%
same,"viability, T/C",[42],0.46%
COC1C(OC(N)=O)C(O)C(Oc2ccc3c(O)c(NC(=O)c4ccc(O)c(CC=C(C)C)c4)c(=O)oc3c2C)OC1(C)C (centres undefined),IC50,"compound alone, run of 01/08/2024",> 10000 nM
CC1COCCN1c1cc(C2(S(C)(=N)=O)CC2)nc(-c2ccnc3[nH]ccc23)n1 (centres undefined),"viability, T/C",compound 0.0316 µM,87.6% and 102% and 103%
same,"viability, T/C",compound 0.1 µM,88.4% and 105% and 117%
same,"viability, T/C",compound 0.316 µM,101% (2×) and 81.7%
same,"viability, T/C",compound 1 µM,77.9% and 69% and 76.1%
same,"viability, T/C",compound 3.16 µM,59.6% and 68.9% and 62.7%
same,"viability, T/C",compound 10 µM,33.2% and 55.2% and 42.2%
same,IC50,curve of compound,4650 nM and > 10000 nM and 6260 nM
COc1cccc2c1C(=O)c1c(O)c3c(c(O)c1C2=O)CC(O)(C(=O)CO)CC3OC1CC(N)C(O)C(C)O1 (centres undefined),"viability, T/C",compound 0.0316 µM,74.8% and 79.1% and 66.5%
same,"viability, T/C",compound 0.1 µM,76.8% and 69% and 68.7%
same,"viability, T/C",compound 0.316 µM,43.7% and 46.9% and 49.5%
same,"viability, T/C",compound 1 µM,10.4% and 8.69% and 8.8%
same,"viability, T/C",compound 3.16 µM,0.42% and 0.45% and 0.4%
same,"viability, T/C",compound 10 µM,0.55% and 0.34% and 0.38%
same,IC50,curve of compound,259 nM and 312 nM
COc1cc2cc(C(=O)CCC(=O)O)sc2cc1OC + Cc1cccc(N(C)C(=O)C2C(O)CCN2c2nc(C)cc(C(F)(F)F)c2C#N)c1,IC50,[1],> 10000 nM
same,IC50,[2],> 10000 nM
same,IC50,[3],> 10000 nM
same,IC50,[4],> 10000 nM
same,IC50,[5],> 10000 nM
same,IC50,[6],> 10000 nM
same,"viability, T/C",[7],97.6%
same,"viability, T/C",[8],95.1%
same,"viability, T/C",[9],93.6%
same,"viability, T/C",[10],97.7%
same,"viability, T/C",[11],96.9%
same,"viability, T/C",[12],84.1%
same,"viability, T/C",[13],94.8%
same,"viability, T/C",[14],93%
same,"viability, T/C",[15],102%
same,"viability, T/C",[16],102%
same,"viability, T/C",[17],86.8%
same,"viability, T/C",[18],87.2%
same,"viability, T/C",[19],88.8%
same,"viability, T/C",[20],93.8%
same,"viability, T/C",[21],89.9%
same,"viability, T/C",[22],89.4%
same,"viability, T/C",[23],87.9%
same,"viability, T/C",[24],76.5%
same,"viability, T/C",[25],89.4%
same,"viability, T/C",[26],96.5%
same,"viability, T/C",[27],100%
same,"viability, T/C",[28],96.9%
same,"viability, T/C",[29],101%
same,"viability, T/C",[30],92.1%
same,"viability, T/C",[31],104%
same,"viability, T/C",[32],106%
same,"viability, T/C",[33],90.4%
same,"viability, T/C",[34],101%
same,"viability, T/C",[35],100%
same,"viability, T/C",[36],86.6%
same,"viability, T/C",[37],84.7%
same,"viability, T/C",[38],87.6%
same,"viability, T/C",[39],81.6%
same,"viability, T/C",[40],105%
same,"viability, T/C",[41],88.8%
same,"viability, T/C",[42],85.6%
